In ChEMBL document CHEMBL3217505, “Synthesis and biological evaluation of a new class of anti-brucella compounds targeting histidinol dehydrogenase: -O-arylketones and -S-arylketones derived from histidine” (Medchemcomm, 2011) one finds IC50 data, which are given here for 14 compounds.

What is called IC50 is the point on the concentration scale where inhibition reaches its midpoint.

This test has as its target T1, Histidinol dehydrogenase (Brucella suis biovar 1 (strain 1330), UniProt Q8G2R2).
T1 sequence (Q8G2R2 whole entry): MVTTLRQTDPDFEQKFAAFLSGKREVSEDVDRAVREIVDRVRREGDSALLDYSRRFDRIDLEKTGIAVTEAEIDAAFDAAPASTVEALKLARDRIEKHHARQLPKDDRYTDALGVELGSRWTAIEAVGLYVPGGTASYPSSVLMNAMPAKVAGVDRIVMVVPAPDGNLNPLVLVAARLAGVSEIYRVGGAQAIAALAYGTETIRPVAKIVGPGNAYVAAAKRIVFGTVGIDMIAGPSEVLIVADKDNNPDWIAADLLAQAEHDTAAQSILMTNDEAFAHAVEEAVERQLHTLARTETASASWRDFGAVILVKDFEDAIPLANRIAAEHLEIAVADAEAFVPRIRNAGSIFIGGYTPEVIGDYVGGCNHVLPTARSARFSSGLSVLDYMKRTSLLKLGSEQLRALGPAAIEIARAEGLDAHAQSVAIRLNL
The experiment in a line: Inhibition of Brucella suis 1330 His6-tagged HDH expressed in Escherichia coli BL21 (DE3) using L-histidinol as substrate assessed as NADH formation preincubated for 5 mins followed by substrate addition.
As to `N[C@@H](Cc1c[nH]cn1)C(=O)COc1c(F)c(F)c(F)c(F)c1F`, the half-maximal inhibitory concentration (IC50) amounted to 2.78 µM.

Take `N[C@@H](Cc1c[nH]cn1)C(=O)CSc1ccc2ccccc2c1`: the IC50 turned out to be 3.3 µM.

`N[C@@H](Cc1c[nH]cn1)C(=O)COc1ccc2ccccc2c1`: the IC50 was 0.108 µM. For `N[C@@H](Cc1c[nH]cn1)C(=O)COc1ccccc1` the value was 3.65 µM; for `N[C@@H](Cc1c[nH]cn1)C(=O)CSc1ccccc1`, 7.1 µM. Under `N[C@@H](Cc1c[nH]cn1)C(=O)CO` stands 0.0243 µM; under `N[C@@H](Cc1c[nH]cn1)C(=O)CSc1ccc(F)cc1`, 3.1 µM; under `N[C@@H](Cc1c[nH]cn1)C(=O)COc1ccc(F)cc1`, 4.7 µM.

Regarding `Cc1ccc(OCC(=O)[C@@H](N)Cc2c[nH]cn2)cc1`, the IC50 was found to be 0.208 µM. For `N[C@@H](Cc1c[nH]cn1)C(=O)CSc1c(F)c(F)c(F)c(F)c1F` the value was 19.2 µM; for `N[C@@H](Cc1c[nH]cn1)C(=O)CSc1ccc(Br)cc1`, 2.8 µM; for `N[C@@H](Cc1c[nH]cn1)C(=O)CS`, 2.1 µM. Under `Cc1ccc(SCC(=O)[C@@H](N)Cc2c[nH]cn2)cc1` stands 39.5 µM; under `N[C@@H](Cc1c[nH]cn1)C(=O)COc1ccc(Br)cc1`, 1.6 µM.
